From patent US9751874B2, “Hydroxy containing FXR (NR1H4) modulating compounds” (Gilead Sciences, Inc., priority 2014, dated 2017)

Tests used:
[1] = biological target: T1, human FXR alpha ligand binding domain (Homo sapiens, UniProt Q96RI1); assay: FRET activity assay (ligand mediated cofactor peptide interaction, LANCE); format: biochemical; details: GST-FXR-LBD / biotinylated SRC-1 peptide (676-700), read-out: F EC50
T1 construct: made in house; host or cells: E. coli BL21(DE3), vector pDEST15
T1 sequence (Q96RI1 187-472 isoform Q96RI1-2): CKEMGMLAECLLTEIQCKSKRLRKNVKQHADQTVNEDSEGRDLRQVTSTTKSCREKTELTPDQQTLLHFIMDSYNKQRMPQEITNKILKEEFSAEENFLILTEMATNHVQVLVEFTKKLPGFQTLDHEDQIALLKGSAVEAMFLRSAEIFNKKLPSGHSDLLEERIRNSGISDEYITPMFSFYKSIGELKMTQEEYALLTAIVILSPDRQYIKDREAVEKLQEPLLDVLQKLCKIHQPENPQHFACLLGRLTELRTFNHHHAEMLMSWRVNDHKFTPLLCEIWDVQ
Method: Determination of a ligand mediated cofactor peptide interaction to quantify ligand binding to the nuclear receptor FXR was performed as follows: Preparation of human FXR alpha ligand binding domain: The human FXRalpha LBD was expressed in E. coli strain BL21(DE3) as an N-terminally GST tagged fusion protein. The DNA encoding the FXR ligand binding domain was cloned into vector pDEST15 (Invitrogen). Expression was under control of an IPTG inducible T7 promoter. The amino acid boundaries of the ligand binding domain were amino acids 187-472 of Database entry NM_005123 (RefSeq). Expression and purification of the FXR-LBD: An overnight preculture of a transformed E. coli strain was diluted 1:20 in LB-Ampicillin medium and grown at 30° C. to an optical density of OD600=0.4-0.6. Gene expression was then induced by addition of 0.5 mM IPTG. Cells were incubated an additional 6 h at 30° C., 180 rpm. Cells were collected by centrifugation (7000×g, 7 min, rt). Per liter of original cell culture, cells were resuspended in 10 mL lysis buffer (50 mM Glucose, 50 mM Tris pH 7.9, 1 mM EDTA and 4 mg/mL lysozyme) and left on ice for 30 min. Cells were then subjected to sonication and cell debris removed via centrifugation (22000×g, 30 min, 4° C.). Per 10 mL of supernatant 0.5 mL prewashed Glutathione 4B sepharose slurry (Qiagen) was added and the suspension kept slowly rotating for 1 h at 4° C. Glutathione 4B sepharose beads were pelleted by centrifugation (2000×g, 15 sec, 4° C.) and washed twice in wash buffer (25 mM Tris, 50 mM KCl, 4 mM MgCl2 and 1M NaCl). The pellet was resuspended in 3 mL elution buffer per liter of original culture (elution buffer: 20 mM Tris, 60 mM KCl, 5 mM MgCl2 and 80 mM glutathione added immediately prior to use as powder). The suspension was left rotating for 15 min at 4° C., the beads pelleted and eluted again with half the volume of elution buffer than the first time. The eluates were pooled and dialysed overnight in 20 mM Hepes buffer (pH 7.5) containing 60 mM KCl, 5 mM MgCl2 as well as 1 mM dithiothreitol and 10% (v/v) glycerol. The protein was analysed by SDS-Page.
The method measures the ability of putative ligands to modulate the interaction between the purified bacterial expressed FXR ligand binding domain (LBD) and a synthetic biotinylated peptide based on residues 676-700 of SRC-1 (LCD2, 676-700). The sequence of the peptide used was B—[…]—COOH where the N-terminus was biotinylated (B). The ligand binding domain (LBD) of FXR was expressed as fusion protein with GST in BL-21 cells using the vector pDEST15. Cells were lysed by sonication, and the fusion proteins purified over glutathione sepharose (Pharmacia) according to the manufacturers instructions. For screening of compounds for their influence on the FXR-peptide interaction, the Perkin Elmer LANCE technology was applied. This method relies on the binding dependent energy transfer from a donor to an acceptor fluorophor attached to the binding partner of interest. For ease of handling and reduction of background from compound fluorescence LANCE technology makes use of generic fluorophore labels and time resolved detection Assays were done in a final volume of 25 μL in a 384 well plate, in a Tris-based buffer (20 mM Tris-HCl pH 7.5; 60 mM KCl, 5 mM MgCl2; 35 ng/μL BSA), containing 20-60 ng/well recombinantly expressed FXR-LBD fused to GST, 200-600 nM N-terminally biotinylated peptide, representing SRC1 aminoacids 676-700, 200 ng/well Streptavidin-xIAPC conjugate (Prozyme) and 6-10 ng/well Eu W1024-antiGST (Perkin Elmer). DMSO content of the samples was kept at 1%. After generation of the assay mix and diluting the potentially FXR modulating ligands, the assay was equilibrated for 1 h in the dark at rt in FIA-plates black 384 well (Greiner). The LANCE signal was detected by a Perkin Elmer VICTOR2VTM Multilabel Counter. The results were visualized by plotting the ratio between the emitted light at 665 and 615 nm. […]

[2] = biological target: T2, FXR ligand binding domain (Homo sapiens, UniProt Q96RI1); assay: Mammalian One Hybrid (M1H) assay, Gal4 promoter driven transactivation in HEK293 cells; format: cell-based; details: Gal4-FXR-LBD luciferase reporter, 16 h
T2 construct: expressed in transfected cells; host or cells: HEK293 cells, transiently transfected with pCMV-BD-FXR-LBD, pFR-Luc and pRL-CMV
T2 sequence (Q96RI1 187-472 isoform Q96RI1-2): T1 sequence (Q96RI1 187-472 isoform Q96RI1-2)
Method: Mammalian One Hybrid (M1H) Assay
Determination of a ligand mediated Gal4 promoter driven transactivation to quantify ligand binding mediated activation of FXR was performed as follows: The cDNA part encoding the FXR ligand binding domain was cloned into vector pCMV-BD (Stratagene) as a fusion to the yeast GAL4 DNA binding domain under the control of the CMV promoter. The amino acid boundaries of the ligand binding domain were amino acids 187-472 of Database entry NM_005123 (RefSeq). The plasmid pFR-Luc (Stratagene) was used as the reporter plasmid, containing a synthetic promoter with five tandem repeats of the yeast GAL4 binding sites, driving the expression of the Photinus pyralis (American firefly) luciferase gene as the reporter gene. In order to improve experimental accuracy the plasmid pRL-CMV (Promega) was cotransfected. pRL-CMV contains the constitutive CMV promoter, controlling the expression of the Renilla reniformis luciferase. All Gal4 reporter gene assays were done in HEK293 cells (obtained from DSMZ, Braunschweig, Germany) grown in MEM with L-Glutamine and Earle's BSS supplemented with 10% fetal bovine serum, 0.1 mM nonessential amino acids, 1 mM sodium pyruvate, and 100 units Penicilin/[…] per mL at 37° C. in 5% CO2. Medium and supplements were obtained from Invitrogen. For the assay, […] cells were plated per well in 96 well plates in 100 μL per well MEM without Phenol Red and L-Glutamine and with Earle's BSS supplemented with 10% charcoal/dextran treated FBS (HyClone, South Logan, Utah), 0.1 mM nonessential amino acids, 2 mM glutamine, 1 mM sodium pyruvate, and 100 units Penicilin/[…] per mL, incubated at 37° C. in 5% CO2. The following day the cells were >90% confluence. Medium was removed and cells were transiently transfected using 20 μL per well of a OptiMEM—polyethylene-imine-based transfection-reagent (OptiMEM, Invitrogen; Polyethyleneimine, Aldrich Cat No. 40,827-7) including the three plasmids described above. MEM with the same composition as used for plating cells was added 2-4 h after addition of transfection mixture. Then compound stocks, prediluted in MEM were added (final vehicle concentration not exceeding 0.1%). Cells were incubated for additional 16 h before firefly and renilla luciferase activities were measured sequentially in the same cell extract using a Dual-Light-Luciferase-Assay system (Dyer et al., Anal. Biochem. 2000, 282, 158-161). All experiments were done in triplicates.

Compound | EC50 [1] | EC50 [2]
O=C(O)c1cc(F)c2nc([C@]3(O)CC4CC3CC4OCc3c(-c4c(Cl)cccc4Cl)noc3C3CC3)sc2c1 (single isomer, unassigned) [Example 11-48] | 46 nM | 190 nM
O=C(O)c1cc(F)c2nc([C@]3(O)[C@@H]4CC[C@H]3C[C@H](OCc3c(-c5c(Cl)c[n+]([O-])cc5Cl)noc3C3CC3)C4)sc2c1 [Example 22, 4-(4-((((1R,3s,5S,8r)-8-(6-Carboxy-4-fluorobenzo[d]thiazol-2-yl)-8-hydroxybicyclo[3.2.1]octan-3-yl)oxy)methyl)-5-cyclopropylisoxazol-3-yl)-3,5-dichloropyridine 1-oxide] | 3.9 nM | 140 nM
N#Cc1ccc2nc([C@]3(O)[C@@H]4CC[C@H]3C[C@H](OCc3c(-c5c(Cl)cccc5Cl)noc3C3CC3)C4)sc2c1 [Example 8-5, 2-((1R,3s,5S,8r)-3-((5-Cyclopropyl-3-(2,6-dichlorophenyl)isoxazol-4-yl)methoxy)-8-hydroxybicyclo[3.2.1]octan-8-yl)benzo[d]thiazole-6-carbonitrile] | 31 nM | 58 nM
O=C(O)c1ccc2nc([C@]3(O)CC[C@H](OCc4c(C5CCC(F)(F)CC5)noc4C4CC4)CC3)sc2c1 [Example 11-2, 2-((1r,4r)-4-((5-Cyclopropyl-3-(4,4-difluorocyclohexyl)isoxazol-4-yl)methoxy)-1-hydroxycyclohexyl)benzo[d]thiazole-6-carboxylic acid] | 8600 nM | > 3000 nM
O=C(O)c1ccc([C@]2(O)CC[C@@H](OCc3c(-c4c(Cl)cccc4Cl)noc3C3CC3)CC2)c(F)c1 [Example 11-5, 4-((1s,4s)-4-((5-Cyclopropyl-3-(2,6-dichlorophenyl)isoxazol-4-yl)methoxy)-1-hydroxycyclohexyl)-3-fluorobenzoic acid] | 60 nM | 94 nM
O=C(O)c1ccc2nc([C@]3(O)CC[C@@H](OCc4c(-c5ccccc5C5CC5)noc4C4CC4)CC3)sc2c1 [Example 11-11, 2-((1s,4s)-4-((5-Cyclopropyl-3-(2-cyclopropylphenyl)isoxazol-4-yl)methoxy)-1-hydroxycyclohexyl)benzo[d]thiazole-6-carboxylic acid] | 1000 nM | 1400 nM
O[C@@]1(c2nc3ccc(CN4CCOCC4)cc3s2)[C@@H]2CC[C@H]1C[C@H](OCc1c(-c3c(Cl)cccc3Cl)noc1C1CC1)C2 [Example 43, (1R,3s,5S,8r)-3-((5-Cyclopropyl-3-(2,6-dichlorophenyl)isoxazol-4-yl)methoxy)-8-(6-(morpholinomethyl)benzo[d]thiazol-2-yl)bicyclo[3.2.1]octan-8-ol] | 15 nM | 15 nM
CS(=O)(=O)NC(=O)c1cc(F)c2nc([C@]3(O)CC[C@@H](OCc4c(-c5c(Cl)cccc5Cl)noc4C4CC4)CC3)sc2c1 [Example 16, 2-((1s,4s)-4-((5-Cyclopropyl-3-(2,6-dichlorophenyl)isoxazol-4-yl)methoxy)-1-hydroxycyclohexyl)-4-fluoro-N-(methylsulfonyl)benzo[d]thiazole-6-carboxamide] | 22 nM | 1900 nM
O=C(O)c1ccc2nc([C@@]3(O)[C@@H]4CC5C[C@H]3C[C@](OCc3c(-c6c(Cl)cccc6Cl)noc3C3CC3)(C5)C4)sc2c1 [Example 11-35, 2-((1R,2r,3S,5s,7s)-5-((5-Cyclopropyl-3-(2,6-dichlorophenyl)isoxazol-4-yl)methoxy)-2-hydroxyadamantan-2-yl)benzo[d]thiazole-6-carboxylic acid] | 9.6 nM | 5.2 nM
O=C(O)c1ccc2nc([C@]3(O)CC[C@@H](OCc4c(-c5ccccc5OC(F)F)noc4C4CC4)CC3)sc2c1 [Example 11-10, 2-((1s,4s)-4-((5-Cyclopropyl-3-(2-(difluoromethoxy)phenyl)isoxazol-4-yl)methoxy)-1-hydroxycyclohexyl)benzo[d]thiazole-6-carboxylic acid] | 250 nM | 1200 nM
CC(C)n1nc(C(=O)O)c2ccc([C@]3(O)CC[C@@H](OCc4c(-c5c(Cl)cccc5Cl)noc4C4CC4)CC3)cc21 [Example 11-45, 6-((1s,4s)-4-((5-Cyclopropyl-3-(2,6-dichlorophenyl)isoxazol-4-yl)methoxy)-1-hydroxycyclohexyl)-1-isopropyl-1H-indazole-3-carboxylic acid] | 7 nM | 140 nM
O=C(O)Cc1csc([C@]2(O)[C@@H]3CC[C@H]2C[C@H](OCc2c(-c4c(Cl)cccc4Cl)noc2C2CC2)C3)n1 [Example 46, 2-(2-((1R,3s,5S,8r)-3-((5-Cyclopropyl-3-(2,6-dichlorophenyl)isoxazol-4-yl)methoxy)-8-hydroxybicyclo[3.2.1]octan-8-yl)thiazol-4-yl)acetic acid] | 42 nM | 260 nM
Cc1cccc(C)c1-c1noc(C2CC2)c1CO[C@H]1CC[C@](O)(c2nc3ccc(C(=O)O)cc3s2)CC1 [Example 11-12, 2-((1s,4s)-4-((5-Cyclopropyl-3-(2,6-dimethylphenyl)isoxazol-4-yl)methoxy)-1-hydroxycyclohexyl)benzo[d]thiazole-6-carboxylic acid] | 360 nM | 430 nM
